Measured values reported in patent publication US8304428B2, “Compounds and methods for inhibiting the interaction of BCL proteins with binding partners” (Infinity Discovery, Inc., priority 2005, dated 2012).

The compounds below were run against Bcl-2 (Homo sapiens, UniProt P10415) (assay: Bcl-2 binding affinity analysis (fluorescence polarization binding assay)).
Chain of Bcl-2 (P10415 whole entry): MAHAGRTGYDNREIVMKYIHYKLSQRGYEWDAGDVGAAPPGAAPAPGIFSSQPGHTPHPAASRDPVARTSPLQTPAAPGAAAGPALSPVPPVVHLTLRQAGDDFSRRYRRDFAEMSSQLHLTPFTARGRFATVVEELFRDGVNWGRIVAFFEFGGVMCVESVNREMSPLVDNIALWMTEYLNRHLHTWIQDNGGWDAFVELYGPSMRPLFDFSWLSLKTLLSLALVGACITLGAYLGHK
Source text: Bcl-2 and Bcl-xL binding can be determined using a variety of known methods. One such assay is a sensitive and quantitative in vitro binding assay using fluorescence polarization (FP) described by Wang, J.-L.; Zhang, Z-J.; Choksi, S.; Sjam. S.; Lu, Z.; Croce, C. M.; Alnemri, E. S.; Komgold, R.; Huang, Z. Cell permeable Bcl-2 binding peptides: a chemical approach to apoptosis induction in tumor cells. Cancer Res. 2000, 60, 1498-1502).
Bcl-2 binding affinity analysis data is presented below for various compounds of the invention.
`COc1c(CN2CCOC[C@H]2C(=O)N[C@H]2C[C@H]3C[C@@H]([C@@H]2C)C3(C)C)cccc1-c1cc(C(=O)N[C@@H](Cc2ccccc2)CN(C)C)cc(N(C)C)c1` [Compound 38] gave a Ki of 300 to 50000 nM. In the case of `COc1c(CN2CSC(C)(C)[C@H]2C(=O)N[C@H]2C[C@H]3C[C@@H]([C@@H]2C)C3(C)C)cccc1-c1cc(C(=O)N[C@@H](Cc2ccccc2)CN(C)C)cc(N(C)C)c1` [Compound 34], the Ki is reported as < 100 nM. In the case of `CCN1CCC[C@@H]1CNC(=O)c1cc(-c2cccc(CN3C[C@H](O)[C@@H]([C@H](C)O)[C@H]3C(=O)NC3C[C@H]4C[C@@H]([C@@H]3C)C4(C)C)c2OC)cc(N(C)C)c1` (stereo partly drawn) [Compound 23], the Ki is reported as < 100 nM. In the case of `COc1c(CN2CCC[C@H]2C(=O)N[C@H]2C[C@H]3C[C@@H]([C@@H]2C)C3(C)C)cccc1-c1cc(C(=O)N[C@@H](Cc2ccccc2)CN(C)C)cc([N+](=O)[O-])c1` [Compound 13], the Ki is reported as > 50000 nM. `COc1c(CN2CSC[C@H]2C(=O)N[C@H]2C[C@H]3C[C@@H]([C@@H]2C)C3(C)C)cccc1-c1cc(C(=O)N[C@@H](Cc2ccccc2)CN(C)C)cc(N(C)C)c1` [Compound 33] was tested, and the Ki was < 100 nM. `COc1c(CN2C[C@@H](N)C[C@H]2C(=O)N[C@H]2C[C@H]3C[C@@H]([C@@H]2C)C3(C)C)cccc1-c1cc(C(=O)N[C@@H](Cc2ccccc2)CN(C)C)cc(N(C)C)c1` [Compound 36] was tested, and the Ki was < 100 nM. For `COc1c(CN2C[C@H](N)C[C@H]2C(=O)N[C@H]2C[C@H]3C[C@@H]([C@@H]2C)C3(C)C)cccc1-c1cc(C(=O)N[C@@H](Cc2ccccc2)CN(C)C)cc(N(C)C)c1` [Compound 35], the Ki was < 100 nM. With `COc1c(CN2CCC[C@@H]2C(=O)N[C@H]2C[C@H]3C[C@@H]([C@@H]2C)C3(C)C)cccc1-c1cc(C(=O)N[C@@H](Cc2ccccc2)CN(C)C)cc([N+](=O)[O-])c1` [Compound 18] the Ki was 300 to 50000 nM. `COc1c(CN2C[C@H](O)[C@@H]([C@H](C)O)[C@H]2C(=O)NC2C[C@H]3C[C@@H]([C@@H]2C)C3(C)C)cccc1-c1cc(C(=O)NCCc2ccccc2)cc(N(C)C)c1` (stereo partly drawn) [Compound 1] was tested, and the Ki was < 100 nM. For `COc1c(CN2CC[C@H](O)[C@H]2C(=O)N[C@H]2C[C@H]3C[C@@H]([C@@H]2C)C3(C)C)cccc1-c1cc(C(=O)N[C@@H](Cc2ccccc2)CN(C)C)cc(N(C)C)c1` [Compound 26], the Ki was < 100 nM. `C[C@H](O)[C@H]1[C@@H](C(=O)NC2C[C@H]3C[C@@H]([C@@H]2C)C3(C)C)N(Cc2cccc(-c3ccc(C(=O)N(C)C)cc3)c2)C[C@@H]1O` (stereo partly drawn) [Compound 24] was tested, and the Ki was > 50000 nM. With `COc1c(CN2CCCC[C@H]2C(=O)N[C@H]2C[C@H]3C[C@@H]([C@@H]2C)C3(C)C)cccc1-c1cc(C(=O)N[C@@H](Cc2ccccc2)CN(C)C)cc(N(C)C)c1` [Compound 37] the Ki was > 50000 nM.
